Laboratory results taken from the NIST ThermoML archive (doi:10.1016/j.jct.2015.09.018).

Settings: 101.33 kPa, Crystal 3; for molar entropy: relaxation calorimeter

[O-2].[O-2].[Ti+4] [titanium(IV) oxide]
Settings | molar entropy [J/K/mol]
0.5 K | 0.000413
1 K | 0.000882
1.5 K | 0.00146
2 K | 0.00221
2.5 K | 0.00316
3 K | 0.00439
3.5 K | 0.00591
4 K | 0.00779
4.5 K | 0.01
5 K | 0.0127
5.5 K | 0.0158
6 K | 0.0194
6.5 K | 0.0234
7 K | 0.0279
7.5 K | 0.0328
8 K | 0.0383
8.5 K | 0.0442
9 K | 0.0506
9.5 K | 0.0575
10 K | 0.0649
11 K | 0.081
12 K | 0.0989
13 K | 0.119
14 K | 0.141
15 K | 0.164
16 K | 0.19
17 K | 0.218
18 K | 0.248
19 K | 0.28
20 K | 0.314
25 K | 0.524
30 K | 0.798
35 K | 1.14
40 K | 1.55
45 K | 2.02
50 K | 2.55
55 K | 3.15
60 K | 3.8
65 K | 4.5
70 K | 5.25
75 K | 6.04
80 K | 6.87
85 K | 7.74
90 K | 8.65
95 K | 9.59
100 K | 10.56
110 K | 12.56
120 K | 14.64
130 K | 16.77
140 K | 18.94
150 K | 21.13
160 K | 23.34
170 K | 25.56
180 K | 27.77
190 K | 29.99
200 K | 32.19
210 K | 34.38
220 K | 36.55
230 K | 38.69
240 K | 40.82
250 K | 42.91
260 K | 44.98
270 K | 47.03
273.15 K | 47.66
280 K | 49.04
290 K | 51.02
298.15 K | 52.61
300 K | 52.97
305 K | 53.94

Settings | mass density [kg/m3]
298.15 K, X-ray diffraction | 4130
